Source: US5891877A, “Pharmaceutical compounds” (Xenova Limited, priority 1996, dated 1999)
Structures can show the parent of a compound that is named as a salt.

Biological target: PAI-1 (Homo sapiens, UniProt P05121)
Experiment: PAI-1 inhibition in the S2251 chromogenic substrate assay (PAI functional assay)
Format: biochemical
Conditions: for inhibition at 20 µM / inhibition at 50 µM / inhibition at 100 µM: read-out: INHIBITION OF PAI-1 (degree of inhibition); for IC50: PAI-1, S2251 assay; for INHIBITION OF PAI-1 (degree of inhibition): unit assumed
Protocol: In this assay, a compound is incubated with PAI-1 prior to addition to the tPA assay system. Inhibition of PAI-1 results in the production of plasmin from plasminogen. […]
Compounds of formula (A) were tested in a PAI chromogenic substrate assay. […] In turn, the plasmin cleaved the chromogenic substrate S2251 (Kabi-Vitrum) producing pNA (p-nitroaniline) which was detected scectrophotometrically at 405 nm.

Sequence of PAI-1 (P05121 24-402): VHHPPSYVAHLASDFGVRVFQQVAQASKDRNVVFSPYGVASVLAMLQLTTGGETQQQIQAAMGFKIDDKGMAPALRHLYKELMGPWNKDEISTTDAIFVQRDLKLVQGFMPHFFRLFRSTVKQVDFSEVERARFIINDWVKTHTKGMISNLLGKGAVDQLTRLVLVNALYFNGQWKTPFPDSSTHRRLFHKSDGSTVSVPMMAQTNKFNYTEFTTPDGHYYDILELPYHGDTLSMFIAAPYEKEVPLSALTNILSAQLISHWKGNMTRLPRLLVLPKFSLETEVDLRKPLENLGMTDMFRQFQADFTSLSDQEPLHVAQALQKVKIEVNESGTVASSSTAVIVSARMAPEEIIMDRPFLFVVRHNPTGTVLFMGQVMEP

Structure (SMILES)	inhibition at 20 µM (20 μM, Table 1, second part) [%]	inhibition at 50 µM (Table 1, second part) [%]	inhibition at 100 µM (Table 1, second part) [%]	INHIBITION OF PAI-1 (degree of inhibition) (12.5 μm, Table 1, first part) [%]	INHIBITION OF PAI-1 (degree of inhibition) (25 μm, Table 1, first part) [%]	INHIBITION OF PAI-1 (degree of inhibition) (50 μm, Table 1, first part) [%]	INHIBITION OF PAI-1 (degree of inhibition) (100 μm, Table 1, first part) [%]	INHIBITION OF PAI-1 (degree of inhibition) (6.25 μm, Table 1, first part) [%]	also measured
CN(C)CCCOc1ccc(/C=c2\[nH]c(=O)/c(=C/c3ccc(-n4ccnc4)cc3)[nH]c2=O)cc1 [Compound 5030, (3Z,6Z)-3-(4-(3-Dimethylaminopropoxy)benzylidene)-6-(4-(1-imidazolyl)benzylidene)-2,5-piperazinedione]	6	7	20						
CN(C)CCCOc1ccc(/C=c2\[nH]c(=O)/c(=C/c3ccc(C(=O)N4CCc5ccccc5C4)cc3)[nH]c2=O)cc1 [Compound 5376]									IC50 (Table 1, second part): 12 µM
COc1ccc(/C=c2\[nH]c(=O)/c(=C/c3ccc(CN)cc3)[nH]c2=O)cc1 [Compound 1657, (3Z,6Z)-3-(4-Aminomethylbenzylidene)-6-(4-methoxybenzylidene)-2,5-piperazinedione]				2	46	60	53		IC50 (Table 2): 25 to 50 µM
COc1ccc(/C=c2\[nH]c(=O)/c(=C/c3ccc(OC(=O)CN4C(=O)c5ccccc5C4=O)cc3)[nH]c2=O)cc1 [Compound 1886, (3Z,6Z)-3-(4-Methoxybenzylidene)-6-(4-phthalimidoacetoxybenzylidene)-2,5-piperazinedione]				6	18	40	42	0	
O=c1[nH]/c(=C\c2c(Cl)cccc2Cl)c(=O)[nH]/c1=C\c1ccoc1 [Compound 1542, (3Z,6Z)-3-(2,6-Dichlorobenzylidene)-6-(3-furylmethylene)-2,5-piperazinedione]				1	9	41	75	1	IC50 (Table 2): 50 to 100 µM
CN(C)CCCOc1ccc(/C=c2\[nH]c(=O)/c(=C/c3ccco3)[nH]c2=O)cc1 [Compound 5041, (3Z,6Z)-6-(4-(3-Dimethylaminopropoxy)benzylidene)-3-furfurylidene-2,5-piperazinedione]	0	0	1						
O=c1[nH]/c(=C\c2ccc(OCCN3CCCC3)cc2)c(=O)[nH]/c1=C\c1ccccc1 [Compound 5053, (3Z,6Z)-6-Benzylidene-3-(4-(2-(1-pyrrolidinyl)ethoxy)benzylidene)2,5-piperazinedione]	56	64	68						
CC(C)(C)OC(=O)n1cc(/C=c2\[nH]c(=O)/c(=C/c3cccs3)[nH]c2=O)c2ccccc21 [Compound 1618, (3Z,6Z)-3-(1-tert-butoxycarbonyl-3-indolyl)methylene-6-(2-thenylidene)-2,5-piperazinedione]				1	3	32	51		IC50 (Table 2): 50 to 100 µM
O=C(NCCN1CCc2ccccc2C1)c1ccc(/C=c2\[nH]c(=O)/c(=C/c3ccccc3)[nH]c2=O)cc1 [Compound 5391, N-(2-(1,2,3,4-Tetrahydro-2-isoquinolyl)ethyl)-4-((3Z,6Z)-6-benzylidene-2,5-dioxo-3-piperazinylidene)methylbenzamide]									INHIBITION OF PAI-1 (degree of inhibition) (20 μM, Table 1, second part): 64%; IC50 (Table 1, second part): 6.5 µM
CN(C)CCOCCOc1ccc(/C=c2\[nH]c(=O)/c(=C/c3ccccc3)[nH]c2=O)s1 [Compound 5388.HCl]									INHIBITION OF PAI-1 (degree of inhibition) (20 μM, Table 1, second part): 60%; IC50 (Table 1, second part): 12 µM
CC(C)(C)OC(=O)n1cccc1/C=c1\[nH]c(=O)/c(=C/c2ccccc2)[nH]c1=O [Compound 1470, (3Z,6Z)-3-Benzylidene-6-(2-(1-tertbutoxycarbonyl)pyrrolyl)methylene-2,5-piperazinedione]				0	2	20	70	0	IC50 (Table 2): 50 to 100 µM
CC(=O)Nc1ccc(/C=c2\[nH]c(=O)/c(=C/C=Cc3ccccc3)[nH]c2=O)cc1 [Compound 1676, (3Z,6Z)-3-(4-Acetamidobenzylidene)-6-cinnamylidene-2,5-piperazinedione]				12	52	51	29	1	IC50 (Table 2): 12 to 25 µM
CC(=O)Nc1ccc(/C=c2\[nH]c(=O)/c(=C/C3CCCCC3)[nH]c2=O)cc1 [Compound 1672]				4	13	44	70	1	IC50 (Table 2): 50 to 100 µM
O=c1[nH]/c(=C\c2ccccc2)c(=O)[nH]/c1=C\C=Cc1ccc([N+](=O)[O-])cc1 [Compound 1923]				12	20	31	38	13	
O=c1[nH]/c(=C\c2ccc(-n3ccnc3)cc2)c(=O)[nH]/c1=C\c1ccccc1 [Compound 1930]				38	79	61	54	30	
CCOC(OCC)c1ccc(/C=c2\[nH]c(=O)/c(=C/c3ccccc3)[nH]c2=O)cc1 [Compound 1891]				3	17	36	28	3	
CN(C)CCCOc1ccc(/C=c2\[nH]c(=O)/c(=C/c3ccc(CN(C)C)cc3)[nH]c2=O)cc1 [Compound 5023]	1								
O=c1[nH]/c(=C\c2ccc(OCC(O)CN3CCN(CCO)CC3)cc2)c(=O)[nH]/c1=C\c1ccccc1 (stereo not shown) [Compound 5043, (3Z,6Z)-6-Benzylidene-3-(4-(2-hydroxy-3-(4-(2-hydroxyethyl)-1-piperazinyl)propoxy)benzylidene)-2,5-piperazinedione]	1	15	21						
CN1CCC(N(C)Cc2ccc(/C=c3\[nH]c(=O)/c(=C/c4ccccc4)[nH]c3=O)cc2)CC1 [Compound 1983]				0	0	14	34	0	
CN(C)CCCOc1ccc(/C=c2\[nH]c(=O)/c(=C/c3ccncc3)[nH]c2=O)cc1 [Compound 5027]	8	8	12						
CN(C)CCCCCCOc1ccc(/C=c2\[nH]c(=O)/c(=C/c3ccccc3)[nH]c2=O)s1 [Compound 5389.HCl]									INHIBITION OF PAI-1 (degree of inhibition) (20 μM, Table 1, second part): 57%
O=C(NCCCCN1CCc2ccccc2C1)c1ccc(/C=c2\[nH]c(=O)/c(=C/c3ccccc3)[nH]c2=O)cc1 [Compound 5371, N-(4-(1,2,3,4-Tetrahydro-2-isoquinolyl)butyl)-4-((3Z,6Z)-6-benzylidene-2,5-dioxo-3-piperazinylidene)methylbenzamide]									IC50 (Table 1, second part): 12 µM

More lines, main results first:

inhibition at 20 µM (20 μM, Table 1, second part) [%]	inhibition at 50 µM (Table 1, second part) [%]	inhibition at 100 µM (Table 1, second part) [%]	INHIBITION OF PAI-1 (degree of inhibition) (12.5 μm, Table 1, first part) [%]	INHIBITION OF PAI-1 (degree of inhibition) (25 μm, Table 1, first part) [%]	INHIBITION OF PAI-1 (degree of inhibition) (50 μm, Table 1, first part) [%]	INHIBITION OF PAI-1 (degree of inhibition) (100 μm, Table 1, first part) [%]	INHIBITION OF PAI-1 (degree of inhibition) (6.25 μm, Table 1, first part) [%]	Structure (SMILES)	also measured
70	69	69						O=c1[nH]/c(=C\c2ccc(OCCn3ccnc3)cc2)c(=O)[nH]/c1=C\c1ccccc1 [Compound 5055, (3Z,6Z)-6-Benzylidene-3-(4-(2-(1-imidazolyl)ethoxy)benzylidene)2,5-piperazinedione]	
37								COc1cc2c(cc1OC)CN(CCc1ccc(NC(=O)c3ccc(/C=c4\[nH]c(=O)/c(=C/c5ccc([N+](=O)[O-])cc5)[nH]c4=O)cc3)cc1)CC2 [Compound 5402]	
14	70	63						CN(C)CCSCc1ccc(/C=c2\[nH]c(=O)/c(=C/c3ccoc3)[nH]c2=O)cc1 [Compound 5073, (3Z,6Z)-6-(4-(2-Dimethylaminoethylthiomethyl)benzylidene)-3-(3-furylmethylene)-2,5-piperazinedione]	
61	61	60						CSc1ccc(/C=c2\[nH]c(=O)/c(=C/c3ccc(OCCN(C)C)cc3)[nH]c2=O)s1 [Compound 5072, (3Z,6Z)-6-(4-(2-Dimethylaminoethoxy)benzylidene)-3-(5-methylthio-2-thenylidene)-2,5-piperazinedione]	
55								CN(C)CCCCCCOc1ccc(/C=c2\[nH]c(=O)/c(=C/c3ccccc3)[nH]c2=O)s1 [Compound 5389, (3Z,6Z)-6-Benzylidene-3-(5-(6-dimethylaminohexyloxy)-2-thienylmethylene)-2,5-piperazinedione]	IC50 (Table 1, second part): 2.5 µM
37	29	44						O=c1[nH]/c(=C\c2ccc(OCC(O)Cn3ccnc3)cc2)c(=O)[nH]/c1=C\c1ccccc1 (stereo not shown) [Compound 5057, (3Z,6Z)-6-Benzylidene-3-(4-(2-hydroxy-3-(1-imidazolyl)propoxy)benzylidene)-2,5-piperazinedione]	
48	57	5						O=c1[nH]/c(=C\c2ccc(OCCN3CCOCC3)cc2)c(=O)[nH]/c1=C\c1ccccc1 [Compound 5054, (3Z,6Z)-6-Benzylidene-3-(4-(2-morpholinoethoxy)benzylidene)-2,5-piperazinedione]	
